Measurements as given in patent US20250163029A1, “PYRIDONE OR PYRIMIDONE DERIVATIVE AND APPLICATION THEREOF” (Medshine Discovery Inc., priority 2022, published 2025).

What was measured:
SARS-CoV-2 replicon = experiment: microbe, parasite or virus in culture; format: cell-based; details: Severe acute respiratory syndrome coronavirus 2, Huh-7, 24 h
SARS-CoV-2 Mpro = biological target: T1, SARS-CoV-2 Mpro (Severe acute respiratory syndrome coronavirus 2, UniProt P0DTD1); experiment: In vitro anti-novel coronavirus Mpro protease activity; format: biochemical; details: 25 nM Mpro protein, 25 μM substrate
T1 construct: Mpro protein was added to the 384-well assay plate; purchased WuXi AppTec
Protocol: (§1) The compound was dissolved in DMSO, and diluted in a 3-fold gradient with Echo655 according to the concentration requirements for the assay to 10 concentration points. Duplicate assays were set at each concentration. The diluted solution was added to a 384-well plate. Mpro protein and substrate were diluted with assay buffer (100 mM NaCl, 20 mM Tris-HCl, 1 mM EDTA). Mpro protein was added to the 384-well assay plate, and incubated with the compound for 30 min at room temperature. Then the substrate was added. The assay concentration of Mpro protein was 25 nM, and the assay concentration of substrate was 25 μM. After incubating for 60 minutes in a 30° C. constant temperature incubator, the fluorescence signal value of Ex/Em=340 nm/490 nm was detected by microplate reader. At the same time, the background well containing the substrate and compound but not containing Mpro protein was detected as control.
as §1, with “EDTA), and” for “EDTA).”, “plate,” for “plate, and”
2) Log (agonist) vs. response—variable slope nonlinear fitting analysis was carried out on the inhibition rate data (inhibition rate %) of the compound by using GraphPad Prism software, and the IC50 value of the compound was obtained.

| Structure (SMILES) | EC50 (SARS-CoV-2 replicon) [nM] | IC50 (SARS-CoV-2 Mpro) [nM] |
| --- | --- | --- |
| Cn1cnc(Cc2c(F)n(Cc3cc(F)c(F)cc3F)c(Nc3cc4cn(C)nc4cc3Cl)nc2=O)n1 [Compound 8] | 58 | 58 |
| Cn1cnc(Cc2cn(Cc3cc(F)c(F)cc3F)c(Nc3cc4cn(C)nc4cc3Cl)nc2=O)n1 [Compound 4] | 66 | 25 |
| Cn1cnc(Cc2cn(Cc3cc(F)c(F)c(F)c3F)c(Nc3cc4cn(C)nc4cc3Cl)nc2=O)n1 [Compound 7] | 82 | 62 |
